These are literature values, as cited in publication PMC6851324, “Design and development of stapled transmembrane peptides that disrupt the activity of G-protein–coupled receptor oligomers” (The Journal of Biological Chemistry, 2019).

The data set deals with 5-HT2AR–CB1R heteromers. On the set-up: method as in 2 sources, ref 16 = [16]; PMID 26158621; doi:10.1371/journal.pbio.1002194; 16. Viñals X. , Moreno E. , Lanfumey L. , Cordomí A. , Pastor A. , de La Torre R. , Gasperini P. , Navarro G. , Howell L. A. , Pardo L. , Lluís C. , Canela E. I. , McCormick P. J. , Maldonado R. , and ||| ref 4, unpublished observations. The note with it: synthetic TM-mimicking peptides fused to HIV-TAT; cited from earlier work.

Where no end group is shown, it is not given here.

Turning to “ETYLMFWIGVTSVLLLFIVYAYMYILWGRKKRRQRRR [TM5-TAT, reference compound]”, the “disruption of 5-HT2AR–CB1R heteromers (previous studies)” value is given as “selectively disrupted”.
“GRKKRRQRRRKTLVLILVVLIICWGPLLAIMVY [TM6-TAT, reference compound]”: the “disruption of 5-HT2AR–CB1R heteromers (previous studies)” value was “selectively disrupted”.
